{"source": "paper PMC3578935", "about": "“Biochemical Characterization of CTX-M-15 from Enterobacter cloacae and Designing a Novel Non-β-Lactam-β-Lactamase Inhibitor” (PLoS ONE, 2013)", "key": {"[1]": {"test_system": "E. coli DH5α transformed with recombinant bla CTX-M-15 (pQE-2-CTX-M-15)", "assay": "MIC by micro-dilution, β-lactams alone or with inhibitors", "format": "cell-based", "description": "E. coli DH5α and E. coli BL21 (DE3) were used for cloning and protein expression experiments, respectively. MICs were determined on E. coli DH5α transformed with cloned CTX-M-15 from Enterobacter cloacae clinical strain EC-15.\nThe MICs for various antibiotics alone or in combination with various inhibitors (clavulanic acid, sulbactam, tazobactam and ZINC03787097) were determined by micro-dilution method and the results were interpreted according to Clinical Laboratory Standards Institute (CLSI) guidelines. Briefly, E. coli DH5α cells transformed with CTX-M-15 was treated with increasing concentrations of the antibiotics ranging from 0.5 to 2000 µg/ml in a series of two fold dilutions. The inhibitors clavulanic acid, sulbactam and tazobactam were used at a fixed concentration of 4 µg/ml, while ZINC03787097 was used at 20 µg/ml."}, "CTX-M-15 [2]": {"target": "T1, CTX-M-15 (Escherichia coli, UniProt Q9EXV5)", "assay": "Enzyme inhibition kinetics (acylation/deacylation, competition with nitrocefin)", "conditions": "K i, determined at steady-state, competition with 100 µM nitrocefin", "source_text": "The parameters k +2, k +3 and K′ are the first-order acylation and deacylation constants, and the dissociation constant of the Henri-Michaelis complex, respectively.\nwhere, v o, v t and v ss are the rates of utilization of the reporter substrate at times 0 and t, and after the steady-state has been established, respectively.\nThe individual parameters, k +2, k +3 and K′, were derived from the dependence of k i upon inhibitor concentration, [C], on the basis of the following equation: [drawing 10]\nWhen the concentration of inhibitor [C] is well below K′, k i varies linearly the above equations is simplified as: [drawing 11]\nThe k +2/K′ value is then obtained from the slope of the line, whereas k +3 is given by the intercept at [C] = 0. Conversely, if [C] is much larger than K′ (K m+[S])/K m, then k i = k +2+k +3, and is independent of [C]"}, "CTX-M-15 [3]": {"target": "T1, CTX-M-15", "format": "biochemical, Enterobacter cloacae", "set-up": "His tag (inferred from the pQE-2 vector and Ni-NTA purification); made in house; host or cells: E. coli BL21 (DE3)", "conditions": "for K m for nitrocefin hydrolysis in the presence of inhibitor: 0.50 nM CTX-M-15"}, "CTX-M-15 [4]": {"target": "T1, CTX-M-15", "assay": "IC50 determination, nitrocefin hydrolysis after 5 min pre-incubation", "format": "biochemical, Enterobacter cloacae", "set-up": "His tag (inferred from the pQE-2 vector and Ni-NTA purification); made in house; host or cells: E. coli BL21 (DE3)", "conditions": "IC50, 5 min pre-incubation at 30°C; 100 µM nitrocefin", "description": "The 50% inhibitory concentration (IC50) was determined as the concentration of the inhibitor that inhibited hydrolytic activity of the enzyme by 50%."}, "CTX-M-15 [5]": {"target": "T1, CTX-M-15", "assay": "Stability of ZINC03787097 in the presence of CTX-M-15 (UV absorbance)", "format": "biochemical, Enterobacter cloacae", "set-up": "His tag (inferred from the pQE-2 vector and Ni-NTA purification); made in house; host or cells: E. coli BL21 (DE3)", "conditions": "100 µM inhibitor, 10 nM CTX-M-15, 3600 seconds, absorbance at 283 nm and 222 nm", "description": "The UV absorption spectrum (320-210 nm) of ZINC03787097 (100 µM) alone or after 3600 seconds incubation with CTX-M-15 (10 nM) was measured in 50 mM phosphate buffer, pH 7.0 at 30°C on Shimadzu UV-VIS spectrophotometer (UV-1800). The stability of ZINC03787097 in the presence of CTX-M-15 was monitored by measuring the absorbance for 3600 seconds at 283 nm and 222 nm."}}, "note": "“Also recorded” adds a separate entry of the source. Where two headings read alike, the source gives them in different places.", "data": [{"smiles": "CC#CCC(C)C(O)C=CC1C(O)CC2Oc3c(CCCC(=O)O)cccc3C21", "note": "(stereo not shown) [ZINC03787097]", "values": [{"measurement": "fold lowering of MIC of cefotaxime in combination with inhibitor", "setting": "[1]; DH5α transformed with bla CTX-M-15", "result": 2, "unit": "fold"}, {"measurement": "effect on MICs of antibiotics of cephalosporin group", "setting": "[1]; ZINC03787097 at 20 µg/ml", "result": "reduced in the presence of ZINC03787097 to a level observed in the case of antibiotic-sulbactam combination"}, {"measurement": "Ki", "setting": "CTX-M-15 [2]", "result": 388, "unit": "nM"}, {"measurement": "K m for nitrocefin hydrolysis in the presence of inhibitor", "setting": "CTX-M-15 [3]; 0.25 µM ZINC03787097", "result": 67, "unit": "µM"}, {"measurement": "K m for nitrocefin hydrolysis in the presence of inhibitor", "setting": "CTX-M-15 [3]; 0.50 µM ZINC03787097", "result": 94, "unit": "µM"}, {"measurement": "K m for nitrocefin hydrolysis in the presence of inhibitor", "setting": "CTX-M-15 [3]; 0.75 µM ZINC03787097", "result": 96, "unit": "µM"}, {"measurement": "mode of inhibition", "setting": "CTX-M-15 [3]; Lineweaver-Burg plot", "result": "reversible inhibitor; also recorded: competitive inhibition"}, {"measurement": "Vmax of nitrocefin hydrolysis", "setting": "CTX-M-15 [3]; similar at 0.00-0.75 µM ZINC03787097", "result": "3.22e-07", "unit": "M/s"}, {"measurement": "IC50", "setting": "CTX-M-15 [4]", "result": 180, "unit": "nM"}, {"measurement": "hydrolysis of inhibitor by CTX-M-15", "setting": "CTX-M-15 [5]", "result": "no detectable hydrolysis; also recorded: negligible hydrolysis"}]}]}
